{"source": "patent US10272117B2", "about": "“Methods of using an activator of cereblon for neural cell expansion and the treatment of central nervous system disorders” (Celgene Corporation, priority 2014, dated 2019)", "system": "zebrafish embryos", "test": "Immunostaining of neurons, proliferating cells, glia and serotonin-positive cells in zebrafish", "assay_type": "in vivo", "conditions": "for numbers of serotonin-positive cells / numbers of radial glia cells: 54-55 hpf; for numbers of radial glia cells: Zrf-2", "protocol": "Antibody staining of early neurons of zebrafish was performed by the following technique. The embryos 24 to 28 hours after fertilization were fixed at 4° C. for 12 hours in a 4% paraformaldehyde/phosphate buffer (pH 8.0). After washing four times with phosphate buffer, where each wash was performed for 15 minutes, blocking was carried out at normal temperature for one hour in 5% newborn goat serum dissolved in 0.5% Triton X-100/phosphate buffer. Primary antibody reaction was carried out using a monoclonal anti-acetylated tubulin antibody diluted at 1:1000 in the same solution at 4° C. for 12 hours. Then, after washing the embryos similarly with phosphate buffer, secondary antibody reaction was carried out using an anti-mouse antibody conjugated with Alexa Fluoro 488 (Molecular Probes) under the same conditions as those applied in the primary antibody reaction. The embryos were then washed with phosphate buffer and transparentized in 30%/50%/70% glycerol (dissolved in phosphate buffer), and then observed with a fluorescent microscope under excitation at 488 nm.\nTwo-days-old zebrafish were used (for glia cell staining and serotonin-producing cell staining, zebrafish 56 hours and 49 hours after fertilization were used, respectively). Zebrafish were fixed with 4% paraformaldehyde (PFA) and then washed with phosphate buffer (PBS), followed by treatment with 10 μg/ml protease K for partial digestion of the epidermis. After the digestion reaction, the zebrafish were washed with PBST (PBS+0.5% Triton X-100) for 20 minutes and then fixed with PFA again. The fixed zebrafish were washed with PBST at room temperature for one hour, followed by blocking using PBST+5% goat serum. The resulting specimens were reacted with a monoclonal anti-glia antibody (zrf-1/zrf-2) or a rabbit anti-serotonin antibody at 4° C. overnight (12 to 18 hours). Subsequently, the specimens were washed with PBST+5% goat serum for one hour at room temperature, and secondary antibody reaction was carried out by substituting the antibody for a goat anti-mouse IgG antibody (Cy-2 conjugate for glia cell staining) or a goat anti-rabbit IgG antibody (Cy-5 conjugate for serotonin-producing cell staining) at 4° C. overnight (12 to 18 hours). Subsequently, the specimens were washed with PBST at room temperature for one hour. After washing, PBST was replaced by 30%, 50%, and 70% glycerol/PBS, and the whole zebrafish were mounted on glass slides to obtain preparations. Fluorescence was observed under excitation wavelength of Cy-2 and Cy-5, and the distribution of the glia cells or the serotonin-producing cells was recorded. Glia cells were observed from the lateral side of zebrafish, while the serotonin-producing cells were photographed from the dorsal side in order to observe the distribution of the cells along the midline.\nNumbers of primary neurons and proliferating cells were analyzed by immunostaining in untreated and Ikaros-knockdown zebrafish embryos at 27 hpf. FIGS. 17A and 17D show the primary neurons in the CNS of the untreated and the Ikaros-knockdown zebrafish embryos, respectively, at 27 hpf by immunostaining with anti-acetylated tubulin antibody. FIGS. 17B and 17E show the proliferating cells in the CNS of the untreated and the Ikaros-knockdown zebrafish embryos, respectively, at 27 hpf by immunostaining with anti-phospho-histone H3 antibodies. […] Global distribution of the primary neurons was normal as shown (scale bar: 50 μm).\nThe number of phosphorylated histone H3-positive cells was counted in a stacked focal plane of laser confocal microscope at 27 hpf. The average number of the H3-positive cells in the telencephalon, the diencephalon, and the midbrain was statistically compared between the untreated and the Ikaros-knockdown embryos (n=3 in each experiment).\nThe numbers of radial glial cells and matured neurons were analyzed in untreated and CRBN-overexpressing zebrafish embryos. […]"}
{"substance": "5′-AGAGCTGTAGCTGGTTCCCCATTTC-3′ (all phosphorodiamidate morpholino (PMO)) [CRBN-knockdown, 25-mer antisense morpholino oligonucleotide (AMO) used for the CRBN gene knockdown, reference compound]", "values": [{"measurement": "numbers of serotonin-positive cells", "result": "decreased"}, {"measurement": "numbers of radial glia cells", "result": "decreased"}]}
{"substance": "5′-TTCCTGTGCCTCCTCAGTCTCCATC-3′ (all phosphorodiamidate morpholino (PMO)) [Ikaros-knockdown, 25-mer antisense morpholino oligonucleotide (AMO) used for the Ikaros gene knockdown]", "values": [{"measurement": "number of the primary neurons in the CNS", "setting": "27 hpf, anti-acetylated tubulin", "result": "increased"}, {"measurement": "number of the proliferating cells in the CNS", "setting": "27 hpf, anti-phospho-histone H3", "result": "increased"}, {"measurement": "number of H3-positive proliferating cells in telencephalon, diencephalon and midbrain", "setting": "27 hpf, n=3", "result": "increased"}, {"measurement": "numbers of serotonin-positive cells", "result": "increased"}, {"measurement": "numbers of radial glia cells", "result": "increased"}]}
